# Earlier results, collected in paper PMC7503219 (International journal of hematology, 2019).
# Tested on: GATA-1low mice
# Conditions: GATA-1 mouse model of PMF
compound,measurement,value
"N#CCCN [BAPN, β-aminopropionitrile]",effect on myelofibrotic phenotype,reduced the pathogenesis of the myelofibrotic phenotype
